Patent publication US20080182859A1 (Curis, Inc., priority 2006, published 2008)
Counter-ions that a name gives are not always drawn.

How the values were obtained:
Type in all cases: cell-based
sonic hedgehog pathway [1] = assay: Human hedgehog reporter assay HEPM-GliLuc (HGL); conditions: HepM human embryonic palatal mesenchymal cells, Gli-luciferase reporter
Excerpt: (§1) Mouse (TM3: mouse Leydig cells; S12: mouse embryonic mesenchymal cells) and human (Daoy: human medulloblastoma cell; HepM: human embryonic palatal mesenchymal cell) cell lines are used to screen small molecules for their ability to modulate the activity of the sonic hedgehog pathway (Table 1, Table 2, and Table 3). Stable hedgehog pathway reporter cell lines are established by specific antibiotic selection following transfection of a reporter plasmid containing a luciferase gene located directly downstream from the gli promoter. Consequently, any observable changes in cellular luciferase activity may be attributed to changes in sonic hedgehog pathway activity in mouse and human cells, respectively, since gli is the major by-product of this pathway. To calculate activity, we generate an eleven point dose curve for each compound using 1:3 dilutions in 96 well assay plates. Each plate tested also contains low and high control to establish maximal pathway activation so to establish/compare a percentage activation of each tested compound (AMAX) on respective plates. Also we calculate EC50 values, or a concentration where the pathway will be exactly 50% activated, for each tested compound to determine potency. In these cell lines, compounds that register >20% AMAX values are considered active.
(§2) Stable hedgehog pathway reporter cell lines are established following specific antibiotic selection following transfection of a reporter plasmid In short, typically cells are plated in MicroTiter-plates at 10,000-20,000 cells per well, in growth media (containing 10%-20% FBS). After 48-72 hrs (HGL and DGL respectively) the media in the assay plates is switched to low-serum containing media (0.5% FBS). At that time compounds are added (at 1-5 μM) to the assay plates, in the presence or absence of hedgehog protein (octyl-modified version; 1-5 ng/ml). After another 24 hrs of incubation, the media from the assay plates is discarded and replaced with luciferase assay-mix. Subsequently, plates are incubated at RT for ˜15-30 mins and then read in a luminometer. [note: addition of the Hedgehog protein, although not critical, will sensitize the assay allowing the identification of weak actives].

sonic hedgehog pathway [2] = assay: Hedgehog pathway Gli-luciferase reporter assay, TM3 cells; conditions: TM3 mouse Leydig cells
Outline: (§3)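 Luminescence read-out of gli-promoter luciferase in stably transfected cells; 11-point 1:3 dose curves, 24 h compound exposure in 0.5% FBS, ± octyl-modified Hh protein 1–5 ng/ml. AMAX as % of plate low/high controls; EC50 from curve; >20% AMAX counted active.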

sonic hedgehog pathway [3] = assay: Human hedgehog reporter assay Daoy-GliLuc (DGL); conditions: Daoy human medulloblastoma cells, Gli-luciferase reporter
Outline: as §3

sonic hedgehog pathway [4] = assay: Hedgehog pathway Gli-luciferase reporter assay, S12 cells; conditions: S12 mouse embryonic mesenchymal cells, read-out: Mouse S12 Avg. EC50
Excerpt: as §1, §2

[5] = read-out: Human Daoy (Gli-Luc) Avg. EC50

Structure (SMILES) | EC50 (sonic hedgehog pathway [1]) [nM] | EC50 (sonic hedgehog pathway [2]) [nM] | EC50 (sonic hedgehog pathway [3]; read-out: Daoy Avg. EC50) [nM] | EC50 (sonic hedgehog pathway [3]; [5]) [nM] | EC50 (sonic hedgehog pathway [4]) [nM]
CN[C@H]1CC[C@@H](N(Cc2cc(-c3ccc(N(C)C=O)cc3)ccc2OC)C(=O)c2sc3cccc(F)c3c2Cl)CC1 [Compound 347, 3-Chloro-4-fluoro-benzo[b]thiophene-2-carboxylic acid [4′-(formyl-methyl-amino)-4-methoxy-biphenyl-3-ylmethyl]-(4-methylamino-cyclohexyl)-amide trifluoroacetate] | < 50 | < 50 | < 50 |  | 
CN[C@H]1CC[C@@H](N(Cc2cc(-c3ccc(C(=O)C(F)(F)F)cc3)ccc2OC)C(=O)c2sc3c(F)ccc(F)c3c2Cl)CC1 [Compound 349, 3-Chloro-4,7-difluoro-benzo[b]thiophene-2-carboxylic acid [4-methoxy-4′-(2,2,2-trifluoro-acetyl)-biphenyl-3-ylmethyl]-(4-methylamino-cyclohexyl)-amide trifluoroacetate] | < 50 | < 50 | < 50 |  | 
CN[C@H]1CC[C@@H](N(Cc2cc(-c3cc(C)nc(C)c3)ccc2OC)C(=O)c2sc3c(F)ccc(F)c3c2Cl)CC1 [Compound 350, 3-Chloro-4,7-difluoro-benzo[b]thiophene-2-carboxylic acid [5-(2,6-dimethyl-pyridin-4-yl)-2-methoxy-benzyl]-(4-methylamino-cyclohexyl)-amide dihydrochloride] | 50 to 250 | < 50 | < 50 |  | 
CN[C@H]1CC[C@@H](N(Cc2cc(-c3cc(C)nc(C)c3)ccc2OC)C(=O)c2sc3cccc(F)c3c2Cl)CC1 [Compound 353, 3-Chloro-4-fluoro-benzo[b]thiophene-2-carboxylic acid [5-(2,6-dimethyl-pyridin-4-yl)-2-methoxy-benzyl]-(4-methylamino-cyclohexyl)-amide dihydrochloride] | 50 to 250 | < 50 | 50 to 250 |  | 
CN[C@H]1CC[C@@H](N(Cc2cc(-c3ccnc(N(C)C)c3)ccc2OC)C(=O)c2sc3c(F)ccc(F)c3c2Cl)CC1 [Compound 358, 3-Chloro-4,7-difluoro-benzo[b]thiophene-2-carboxylic acid [5-(2-dimethylamino-pyridin-4-yl)-2-methoxy-benzyl]-(4-methylamino-cyclohexyl)-amide dihydrochloride] | < 50 | < 50 | < 50 |  | 
CN[C@H]1CC[C@@H](N(Cc2cc(-c3ccc(CS(C)(=O)=O)cc3)ccc2OC)C(=O)c2sc3c(F)ccc(F)c3c2Cl)CC1 [Compound 369, 3-Chloro-4,7-difluoro-benzo[b]thiophene-2-carboxylic acid (4′-methanesulfonylmethyl-4-methoxy-biphenyl-3-ylmethyl)-(4-methylamino-cyclohexyl)-amide hydrochloride] |  |  |  | < 50 | < 50
CN[C@H]1CC[C@@H](N(Cc2cc(-c3ccc(NS(C)(=O)=O)cc3)ccc2OC)C(=O)c2sc3c(F)ccc(F)c3c2Cl)CC1 [Compound 370, 3-Chloro-4,7-difluoro-benzo[b]thiophene-2-carboxylic acid (4′-methanesulfonylamino-4-methoxy-biphenyl-3-ylmethyl)-(4-methylamino-cyclohexyl)-amide hydrochloride] |  |  |  | < 50 | < 50
CN[C@H]1CC[C@@H](N(Cc2cc(-c3ccc(N(C)S(C)(=O)=O)cc3)ccc2OC)C(=O)c2sc3c(F)ccc(F)c3c2Cl)CC1 [Compound 371, 3-Chloro-4,7-difluoro-benzo[b]thiophene-2-carboxylic acid [4′-(methanesulfonyl-methyl-amino)-4-methoxy-biphenyl-3-ylmethyl]-(4-methylamino-cyclohexyl)-amide hydrochloride] |  |  |  | < 50 | < 50
CNC1CCC(N(Cc2cc(-c3cccc(SC)c3)ccc2OC)C(=O)c2sc3c(F)ccc(F)c3c2Cl)CC1 (stereo not shown) [Compound 372, 3-Chloro-4,7-difluoro-benzo[b]thiophene-2-carboxylic acid (4-methoxy-3′-methylsulfanyl-biphenyl-3-ylmethyl)-(4-methylamino-cyclohexyl)-amide hydrochloride] |  |  |  | < 50 | < 50
CNC1CCC(N(Cc2cc(-c3ccc(SC)cc3)ccc2OC)C(=O)c2sc3c(F)ccc(F)c3c2Cl)CC1 (stereo not shown) [Compound 373, 3-Chloro-4,7-difluoro-benzo[b]thiophene-2-carboxylic acid (4-methoxy-4′-methylsulfanyl-biphenyl-3-ylmethyl)-(4-methylamino-cyclohexyl)-amide hydrochloride] |  |  |  | < 50 | < 50
CN[C@H]1CC[C@@H](N(Cc2cc(-c3cc[n+]([O-])cc3)ccc2OC)C(=O)c2sc3c(F)ccc(F)c3c2Cl)CC1 [Compound 374, 4-(3-((3-chloro-4,7-difluoro-N-((1s,4s)-4-(methylamino)cyclohexyl)benzo[b]thiophene-2-carboxamido)methyl)-4-methoxyphenyl)pyridine 1-oxide] |  |  |  | < 50 | < 50
COc1ccc(-c2ccncc2)cc1CN(C(=O)c1sc2c(F)ccc(F)c2c1Cl)[C@H]1CC[C@@H](N)CC1 [Compound 375, N-((1r,4r)-4-aminocyclohexyl)-3-chloro-4,7-difluoro-N-(2-methoxy-5-(pyridin-4-yl)benzyl)benzo[b]thiophene-2-carboxamide hydrochloride] |  |  |  | < 50 | < 50
CN[C@H]1CC[C@@H](N(Cc2cc(-c3cccc([S+](C)[O-])c3)ccc2OC)C(=O)c2sc3c(F)ccc(F)c3c2Cl)CC1 (stereo partly shown) [Compound 376, 3-Chloro-4,7-difluoro-benzo[b]thiophene-2-carboxylic acid (3′-methanesulfinyl-4-methoxy-biphenyl-3-ylmethyl)-(4-methylamino-cyclohexyl)-amide trifluoroacetate] |  |  |  | < 50 | < 50
CNC1CCC(N(Cc2cc(-c3ccc(N)nc3C)ccc2OC)C(=O)c2sc3ccccc3c2Cl)CC1 (stereo not shown) [Compound 398, 3-Chloro-benzo[b]thiophene-2-carboxylic acid [5-(6-amino-2-methyl-pyridin-3-yl)-2-methoxy-benzyl]-(4-methylamino-cyclohexyl)-amide dihydrochloride] | 1000 to 2500 | 1000 to 2500 | 250 to 1000 |  | 
CCOc1ccc(-c2ccc(NC)nc2)cc1CN(C(=O)c1sc2ccccc2c1Cl)[C@H]1CC[C@H](NC)CC1 [Compound 399, 3-Chloro-benzo[b]thiophene-2-carboxylic acid [2-ethoxy-5-(6-methylamino-pyridin-3-yl)-benzyl]-(4-methylamino-cyclohexyl)-amide dihydrochloride] | 1000 to 2500 | 1000 to 2500 | 250 to 1000 |  | 
CCOc1ccc(-c2cnc(NC)nc2)cc1CN(C(=O)c1sc2ccccc2c1Cl)[C@H]1CC[C@H](NC)CC1 [Compound 402, 3-Chloro-benzo[b]thiophene-2-carboxylic acid [2-ethoxy-5-(2-methylamino-pyrimidin-5-yl)-benzyl]-(4-methylamino-cyclohexyl)-amide dihydrochloride] | 250 to 1000 | 1000 to 2500 | 50 to 250 |  | 
CN[C@H]1CC[C@H](N(Cc2cc(-c3ccc(C(C)=O)cc3)ccc2F)C(=O)c2sc3ccccc3c2Cl)CC1 [Compound 419, 3-Chloro-benzo[b]thiophene-2-carboxylic acid (4′-acetyl-4-fluoro-biphenyl-3-ylmethyl)-(4-methylamino-cyclohexyl)-amide trifluoroacetate] | 250 to 1000 | < 50 | 50 to 250 |  | 
CN[C@H]1CC[C@H](N(Cc2cc(-c3ccc(C(=O)C(F)(F)F)cc3)ccc2F)C(=O)c2sc3ccccc3c2Cl)CC1 [Compound 424, 3-Chloro-benzo[b]thiophene-2-carboxylic acid [4-fluoro-4′-(2,2,2-trifluoro-acetyl)-biphenyl-3-ylmethyl]-(4-methylamino-cyclohexyl)-amide trifluoroacetate] | 250 to 1000 | < 50 | < 50 |  | 
CN[C@H]1CC[C@@H](N(Cc2cc(-c3ccccc3)ccc2OC)C(=O)c2sc3ccccc3c2Cl)CC1 [Compound R3, 3-Chloro-benzo[b]thiophene-2-carboxylic acid (4-methoxy-biphenyl-3-ylmethyl)-(4-methylamino-cyclohexyl)-amide hydrochloride] | 50 to 250 | < 50 | 50 to 250 |  | 
